Tests used:
Format in all cases: in vivo
[1] = system: barnyardgrass (Echinochloa crus-galli); experiment: Test G Pre-Emergence Protocol; conditions: Echinochloa crus-galli, pre-emergence, 312 h, evaluated after 13 days; for pest or weed control at 15.625 g/ha: 15.625 g ai/ha; for pest or weed control at 15.625 g/ha / pest or weed control at 250 g/ha: read-out: Barnyardgrass damage rating (100=total damage to plant; 0=no damage to plant); for pest or weed control at 62.5 g/ha: 62.5 g ai/ha, 100=total damage to plant, 0=no damage to plant, read-out: Barnyardgrass damage rating; for pest or weed control at 250 g/ha: 250 g ai/ha
Method in brief: (§1)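 Seeds were sown in standard soil and kept one day in a glasshouse (24/16° C day/night, 14 h light, 65% humidity), then sprayed with compound in acetone/water (50:50) containing 0.5% Tween 20 at 15.625, 62.5 or 250 g/ha. Damage was scored after 13 days (0 = none, 100 = total).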

corn (Zea mays) [2] = experiment: Test G Pre-Emergence Protocol; conditions: Zea mays, pre-emergence, 312 h, evaluated after 13 days; for plant injury at 15.625 g/ha: 15.625 g ai/ha; for plant injury at 15.625 g/ha / plant injury at 250 g/ha: read-out: Corn damage rating (100=total damage to plant; 0=no damage to plant); for plant injury at 62.5 g/ha: 62.5 g ai/ha, 100=total damage to plant, 0=no damage to plant, read-out: Corn damage rating; for plant injury at 250 g/ha: 250 g ai/ha
Method in brief: as §1

[3] = system: giant foxtail (Setaria faberi); experiment: Test G Pre-Emergence Protocol; conditions: Setaria faberi, pre-emergence, 312 h, evaluated after 13 days; for pest or weed control at 15.625 g/ha: 15.625 g ai/ha; for pest or weed control at 15.625 g/ha / pest or weed control at 250 g/ha: read-out: Foxtail, Giant damage rating (100=total damage to plant; 0=no damage to plant); for pest or weed control at 62.5 g/ha: 62.5 g ai/ha, 100=total damage to plant, 0=no damage to plant, read-out: Foxtail, Giant damage rating; for pest or weed control at 250 g/ha: 250 g ai/ha
Method in brief: as §1

[4] = system: ivy-leaved morning glory (Ipomoea hederacea); experiment: Test G Pre-Emergence Protocol; conditions: Ipomoea, pre-emergence, 312 h, evaluated after 13 days; for pest or weed control at 15.625 g/ha: 15.625 g ai/ha; for pest or weed control at 15.625 g/ha / pest or weed control at 250 g/ha: read-out: Morningglory, Ivy-leaved damage rating (100=total damage to plant; 0=no damage to plant); for pest or weed control at 62.5 g/ha: 62.5 g ai/ha, 100=total damage to plant, 0=no damage to plant, read-out: Morningglory, Ivy-leaved damage rating; for pest or weed control at 250 g/ha: 250 g ai/ha
Method in brief: as §1

[5] = system: redroot pigweed (Amaranthus retroflexus); experiment: Test G Pre-Emergence Protocol; conditions: Amaranthus retroflexus, pre-emergence, 312 h, evaluated after 13 days; for pest or weed control at 15.625 g/ha: 15.625 g ai/ha; for pest or weed control at 15.625 g/ha / pest or weed control at 250 g/ha: read-out: Pigweed, Redroot damage rating (100=total damage to plant; 0=no damage to plant); for pest or weed control at 62.5 g/ha: 62.5 g ai/ha, 100=total damage to plant, 0=no damage to plant, read-out: Pigweed, Redroot damage rating; for pest or weed control at 250 g/ha: 250 g ai/ha
Method in brief: as §1

[6] = system: velvetleaf (Abutilon theophrasti); experiment: Test G Pre-Emergence Protocol; conditions: Abutilon theophrasti, pre-emergence, 312 h, evaluated after 13 days; for pest or weed control at 15.625 g/ha: 15.625 g ai/ha; for pest or weed control at 15.625 g/ha / pest or weed control at 250 g/ha: read-out: Velvetleaf damage rating (100=total damage to plant; 0=no damage to plant); for pest or weed control at 62.5 g/ha: 62.5 g ai/ha, 100=total damage to plant, 0=no damage to plant, read-out: Velvetleaf damage rating; for pest or weed control at 250 g/ha: 250 g ai/ha
Method in brief: as §1

[7] = system: barnyardgrass (Echinochloa crus-galli); experiment: Test G Post-Emergence Protocol; conditions: Echinochloa crus-galli, post-emergence, 312 h, read-out: Barnyardgrass damage rating; for pest or weed control at 15.625 g/ha: 15.625 g ai/ha, evaluated after 13 days (100=total damage to plant; 0=no damage to plant); for pest or weed control at 62.5 g/ha: 62.5 g ai/ha; for pest or weed control at 62.5 g/ha / pest or weed control at 250 g/ha: evaluated after 13 days, 100=total damage to plant, 0=no damage to plant; for pest or weed control at 250 g/ha: 250 g ai/ha
Method in brief: (§2)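 Values are percent visual injury at 13 days after treatment (0 none, 100 total). Treatment was a post-emergence spray at 15.625, 62.5 or 250 g/ha on 8-day-old pot plants kept at 24/16 °C.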

corn (Zea mays) [8] = experiment: Test G Post-Emergence Protocol; conditions: Zea mays, post-emergence, 312 h, read-out: Corn damage rating; for plant injury at 15.625 g/ha: 15.625 g ai/ha, evaluated after 13 days (100=total damage to plant; 0=no damage to plant); for plant injury at 62.5 g/ha: 62.5 g ai/ha; for plant injury at 62.5 g/ha / plant injury at 250 g/ha: evaluated after 13 days, 100=total damage to plant, 0=no damage to plant; for plant injury at 250 g/ha: 250 g ai/ha
Method in brief: as §2

[9] = system: giant foxtail (Setaria faberi); experiment: Test G Post-Emergence Protocol; conditions: Setaria faberi, post-emergence, 312 h, read-out: Foxtail, Giant damage rating; for pest or weed control at 15.625 g/ha: 15.625 g ai/ha, evaluated after 13 days (100=total damage to plant; 0=no damage to plant); for pest or weed control at 62.5 g/ha: 62.5 g ai/ha; for pest or weed control at 62.5 g/ha / pest or weed control at 250 g/ha: evaluated after 13 days, 100=total damage to plant, 0=no damage to plant; for pest or weed control at 250 g/ha: 250 g ai/ha
Method in brief: as §2

[10] = system: ivy-leaved morning glory (Ipomoea hederacea); experiment: Test G Post-Emergence Protocol; conditions: Ipomoea, post-emergence, 312 h, read-out: Morningglory, Ivy-leaved damage rating; for pest or weed control at 15.625 g/ha: 15.625 g ai/ha, evaluated after 13 days (100=total damage to plant; 0=no damage to plant); for pest or weed control at 62.5 g/ha: 62.5 g ai/ha; for pest or weed control at 62.5 g/ha / pest or weed control at 250 g/ha: evaluated after 13 days, 100=total damage to plant, 0=no damage to plant; for pest or weed control at 250 g/ha: 250 g ai/ha
Method in brief: as §2

[11] = system: redroot pigweed (Amaranthus retroflexus); experiment: Test G Post-Emergence Protocol; conditions: Amaranthus retroflexus, post-emergence, 312 h, read-out: Pigweed, Redroot damage rating; for pest or weed control at 15.625 g/ha: 15.625 g ai/ha, evaluated after 13 days (100=total damage to plant; 0=no damage to plant); for pest or weed control at 62.5 g/ha: 62.5 g ai/ha; for pest or weed control at 62.5 g/ha / pest or weed control at 250 g/ha: evaluated after 13 days, 100=total damage to plant, 0=no damage to plant; for pest or weed control at 250 g/ha: 250 g ai/ha
Method in brief: as §2

[12] = system: velvetleaf (Abutilon theophrasti); experiment: Test G Post-Emergence Protocol; conditions: Abutilon theophrasti, post-emergence, 312 h, read-out: Velvetleaf damage rating; for pest or weed control at 15.625 g/ha: 15.625 g ai/ha, evaluated after 13 days (100=total damage to plant; 0=no damage to plant); for pest or weed control at 62.5 g/ha: 62.5 g ai/ha; for pest or weed control at 62.5 g/ha / pest or weed control at 250 g/ha: evaluated after 13 days, 100=total damage to plant, 0=no damage to plant; for pest or weed control at 250 g/ha: 250 g ai/ha
Method in brief: as §2

Row | SMILES | pest or weed control at 15.625 g/ha [1] [%] | pest or weed control at 62.5 g/ha [1] [%] | pest or weed control at 250 g/ha [1] [%] | plant injury at 15.625 g/ha (corn (Zea mays) [2]) [%] | plant injury at 62.5 g/ha (corn (Zea mays) [2]) [%] | plant injury at 250 g/ha (corn (Zea mays) [2]) [%] | pest or weed control at 15.625 g/ha [3] [%] | pest or weed control at 62.5 g/ha [3] [%] | pest or weed control at 250 g/ha [3] [%] | pest or weed control at 15.625 g/ha [4] [%] | pest or weed control at 62.5 g/ha [4] [%] | pest or weed control at 250 g/ha [4] [%] | pest or weed control at 15.625 g/ha [5] [%] | pest or weed control at 62.5 g/ha [5] [%] | pest or weed control at 250 g/ha [5] [%] | pest or weed control at 15.625 g/ha [6] [%] | pest or weed control at 62.5 g/ha [6] [%] | pest or weed control at 250 g/ha [6] [%] | pest or weed control at 15.625 g/ha [7] [%] | pest or weed control at 62.5 g/ha [7] [%] | further results
1 | Cc1ccc(C2CN(C)C(=O)C2C(=O)Nc2cccc(F)c2F)cc1[N+](=O)[O-] (stereo not drawn) [Compound 1722] | 0 | 60 | 80 | 10 | 30 | 70 | 60 | 70 | 90 | 0 | 0 | 0 | 0 | 10 | 30 | 0 | 0 | 20 | 10 | 60 | pest or weed control at 250 g/ha [7]: 80%; plant injury at 15.625 g/ha (corn (Zea mays) [8]): 10%; plant injury at 62.5 g/ha (corn (Zea mays) [8]): 0%; plant injury at 250 g/ha (corn (Zea mays) [8]): 80%; pest or weed control at 15.625 g/ha [9]: 60%; pest or weed control at 62.5 g/ha [9]: 70%; pest or weed control at 250 g/ha [9]: 80%; pest or weed control at 15.625 g/ha [10]: 20%; pest or weed control at 62.5 g/ha [10]: 30%; pest or weed control at 250 g/ha [10]: 70%; pest or weed control at 15.625 g/ha [11]: 0%; pest or weed control at 62.5 g/ha [11]: 10%; pest or weed control at 250 g/ha [11]: 30%; pest or weed control at 15.625 g/ha [12]: 0%; pest or weed control at 62.5 g/ha [12]: 10%; pest or weed control at 250 g/ha [12]: 10%
2 | CCCOc1cc(C2CN(C)C(=O)C2C(=O)Nc2cccc(F)c2F)cc(C(F)(F)F)c1 (stereo not drawn) [Compound 1725] | 20 | 50 | 70 | 0 | 0 | 30 | 20 | 50 | 80 | 0 | 0 | 0 | 0 | 0 | 20 | 0 | 0 | 0 | 0 | 30 | pest or weed control at 250 g/ha [7]: 70%; plant injury at 15.625 g/ha (corn (Zea mays) [8]): 10%; plant injury at 62.5 g/ha (corn (Zea mays) [8]): 0%; plant injury at 250 g/ha (corn (Zea mays) [8]): 70%; pest or weed control at 15.625 g/ha [9]: 0%; pest or weed control at 62.5 g/ha [9]: 70%; pest or weed control at 250 g/ha [9]: 80%; pest or weed control at 15.625 g/ha [10]: 30%; pest or weed control at 62.5 g/ha [10]: 70%; pest or weed control at 250 g/ha [10]: 70%; pest or weed control at 15.625 g/ha [11]: 0%; pest or weed control at 62.5 g/ha [11]: 10%; pest or weed control at 250 g/ha [11]: 60%; pest or weed control at 15.625 g/ha [12]: 0%; pest or weed control at 62.5 g/ha [12]: 0%; pest or weed control at 250 g/ha [12]: 10%
